Literature values, collected in US6087327A (priority 1998, dated 2000).

Test system: neurotransmitter release process

Question: For `Nc1ccncc1` [aminopyridine], which “reversal of inhibition produced by botulinum neurotoxin A” value is on record?
Answer: more effective
